Laboratory results reported in US11297861B2, “Sweet protein from truffle” (MycoTechnology, Inc., priority 2020, dated 2022).

Test system: sweet taste
Assay: CATA time intensity of the sweet sensation, trained panel
Assay type: in vivo, human
Conditions: 10% sucrose in water
Protocol: Evaluation of thaumatin, sucrose, and SEQ ID NO:21 was carried out using a CATA (click all that apply) time intensity of the sweet sensation of named analytes in water at 0.045 mg/ml for proteins and 10% sucrose. Methodology: Time Intensity Technique; Data collection software: EyeQuestion, responses recorded every 2.57 seconds; Scaling Method: a 15-point sweet scale, e.g. score 5=5% sucrose, score 10=10% sucrose; Evaluation Protocol: small volume sip, tilt and spit test. There were 3-6 panelists and 2 replicates. All samples were blinded and presented with randomized 3-digit codes. Training Strategies: An intense training on sweet scale over 6 weeks on 15-point sweet scale to confidently assign sweet values. Due to unique sweet behavioral patterns, it is necessary to train time intensity principles over 3 weeks. Samples were tasted with a stopwatch to note times and help reach a consensus. # of Panelists: 3-6, # of replications: 2. All samples were blinded and presented with randomized 3-digit codes. Statistical analysis: due to the small # of panelists, a statistical analysis cannot be performed.

Question: Which “time to threshold sweetness (Intensity <1)” value does the source give for OC[C@H]1O[C@@](CO)(O[C@H]2O[C@H](CO)[C@@H](O)[C@H](O)[C@H]2O)[C@@H](O)[C@@H]1O [SUC, sucrose] here?
Answer: Its value is 162 s.
